From patent publication EP1935887A1, “Heterocyclic substituted carbonyl derivatives and their use as dopamine D3 receptor ligands” (Aventis Pharmaceuticals Inc., priority 2001, dated 2002)

Biological target: T1, Cloned Human Dopamine D3 Receptors (Homo sapiens, UniProt P35462)
T1 construct: expressed in transfected cells; membrane homogenate
Test: [N-Methyl-3H]Spiroperidol binding to cloned human dopamine D3 receptors
Conditions: Table 2; unit inferred; read-out: d3Ki
Outline: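 Membranes from CHO cells stably expressing human D3 receptor, homogenised in 10% DMSO and stored at -80°C. Binding uses [N-methyl-3H]spiroperidol in Tris buffer, pH 7.7.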

T1 sequence (P35462 whole entry): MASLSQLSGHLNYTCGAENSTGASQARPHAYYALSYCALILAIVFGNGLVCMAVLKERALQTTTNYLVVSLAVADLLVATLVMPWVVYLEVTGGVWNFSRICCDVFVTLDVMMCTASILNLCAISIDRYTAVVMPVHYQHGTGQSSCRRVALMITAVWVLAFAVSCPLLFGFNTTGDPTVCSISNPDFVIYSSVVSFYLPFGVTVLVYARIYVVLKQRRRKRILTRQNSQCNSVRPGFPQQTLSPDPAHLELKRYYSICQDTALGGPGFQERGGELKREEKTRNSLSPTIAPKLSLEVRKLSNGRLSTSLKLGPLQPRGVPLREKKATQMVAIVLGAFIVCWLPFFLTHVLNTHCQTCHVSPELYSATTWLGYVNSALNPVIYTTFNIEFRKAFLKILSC

Compound	Ki [nM]
C[C@H]1CC[C@H](NC(=O)CCCN2CCN(c3csc4cc(C(F)(F)F)ccc34)CC2Cc2ccccc2)CC1 (stereo partly drawn) [compound 827055]	792
CCOC(=O)[C@H]1CC[C@H](NC(=O)CCCN2CCN(c3csc4cc(C(F)(F)F)ccc34)CC2CCc2ccccc2)CC1 (stereo partly drawn) [compound 827071]	454
CN(C(=O)CCCN1CCN(c2csc3cc(C(F)(F)F)ccc23)CC1CCc1ccccc1)C1CCCCC1 (stereo not drawn) [compound 827074]	267
CN(C(=O)CCCN1CCN(c2csc3cc(C(F)(F)F)ccc23)CC1CCCc1ccccc1)C1CCCCC1 (stereo not drawn) [compound 827079]	126
CCOC(=O)C1CCC(NC(=O)CCCN2CCN(c3csc4cc(F)ccc34)CC2Cc2ccccc2)CC1 (stereo not drawn) [compound 827086]	334
CCC1CCC(NC(=O)CCCN2CCN(c3csc4cc(F)ccc34)CC2Cc2ccccc2)CC1 (stereo not drawn) [compound 827087]	178
CC1CCCC(NC(=O)CCCN2CCN(c3csc4cc(F)ccc34)CC2Cc2ccccc2)C1 (stereo not drawn) [compound 827088]	284
CN(C(=O)CCCN1CCN(c2csc3cc(F)ccc23)CC1Cc1ccccc1)C1CCCCC1 (stereo not drawn) [compound 827089]	307
CCN(C(=O)CCCN1CCN(c2csc3cc(F)ccc23)CC1Cc1ccccc1)C1CCCCC1 (stereo not drawn) [compound 827090]	346
O=C(CCCN1CCN(c2csc3cc(F)ccc23)CC1Cc1ccccc1)NC1CCCC1 (stereo not drawn) [compound 827101]	148
O=C(CCCN1CCN(c2csc3cc(F)ccc23)CC1Cc1ccccc1)NC1CCCCC1 (stereo not drawn) [compound 827102]	218
C[C@H]1CC[C@H](NC(=O)CCCN2CCN(c3csc4cc(F)ccc34)CC2CCCc2ccccc2)CC1 (stereo partly drawn) [compound 827105]	117
CCOC(=O)C1CCC(NC(=O)CCCN2CCN(c3csc4cc(F)ccc34)CC2CCCc2ccccc2)CC1 (stereo not drawn) [compound 827106]	317
CC[C@H]1CC[C@H](NC(=O)CCCN2CCN(c3csc4cc(F)ccc34)CC2CCCc2ccccc2)CC1 (stereo partly drawn) [compound 827107]	489
CC1CCCC(NC(=O)CCCN2CCN(c3csc4cc(F)ccc34)CC2CCCc2ccccc2)C1 (stereo not drawn) [compound 827108]	302
CN(C(=O)CCCN1CCN(c2csc3cc(F)ccc23)CC1CCCc1ccccc1)C1CCCCC1 (stereo not drawn) [compound 827109]	78.6
CCN(C(=O)CCCN1CCN(c2csc3cc(F)ccc23)CC1CCCc1ccccc1)C1CCCCC1 (stereo not drawn) [compound 827110]	208
O=C(CCCN1CCN(c2csc3cc(F)ccc23)CC1CCCc1ccccc1)N(CCO)C1CCCCC1 (stereo not drawn) [compound 827111]	143

Same assay, conditions: Table 2 part the 10th table; read-out: d3Ki

Compound	Ki [nM]
O=C([C@@H]1C[C@H]1CN1CCN(c2csc3cc(C(F)(F)F)ccc23)CC1)N1CCC(N2CCCCC2)CC1 [compound 826910]	17.5
O=C([C@@H]1C[C@H]1CN1CCN(c2csc3cc(C(F)(F)F)ccc23)CC1)N1CCC(O)(c2ccccc2)CC1 [compound 826911]	93
CC1(C)CCCN(C(=O)[C@@H]2C[C@H]2CN2CCN(c3csc4cc(C(F)(F)F)ccc34)CC2)C1 [compound 826912]	58.5
CC1CC(C)CN(C(=O)[C@@H]2C[C@H]2CN2CCN(c3csc4cc(C(F)(F)F)ccc34)CC2)C1 (stereo partly drawn) [compound 826913]	86.1
O=C([C@@H]1C[C@H]1CN1CCN(c2csc3cc(C(F)(F)F)ccc23)CC1)N1CCC(O)C1 (stereo partly drawn) [compound 826914]	101
O=C([C@@H]1C[C@H]1CN1CCN(c2csc3cc(C(F)(F)F)ccc23)CC1)N1CCC[C@H]1CNc1ccccc1 [compound 826916]	157
COC[C@@H]1CCCN1C(=O)[C@@H]1C[C@H]1CN1CCN(c2csc3cc(C(F)(F)F)ccc23)CC1 [compound 826917]	196
CC1CCCN1C(=O)[C@@H]1C[C@H]1CN1CCN(c2csc3cc(C(F)(F)F)ccc23)CC1 (stereo partly drawn) [compound 826918]	30.3
Cc1cccc(C)c1NC[C@@H]1CCCN1C(=O)[C@@H]1C[C@H]1CN1CCN(c2csc3cc(C(F)(F)F)ccc23)CC1 [compound 826919]	329
O=C([C@@H]1C[C@H]1CN1CCN(c2csc3cc(C(F)(F)F)ccc23)CC1)N1CCC[C@H]1CO [compound 826920]	67.6
CC(=O)N(C)C1CCN(C(=O)[C@@H]2C[C@H]2CN2CCN(c3csc4cc(C(F)(F)F)ccc34)CC2)C1 (stereo partly drawn) [compound 826921]	183
CC(=O)N[C@@H]1CCN(C(=O)[C@@H]2C[C@H]2CN2CCN(c3csc4cc(C(F)(F)F)ccc34)CC2)C1 [compound 826922]	183
COC[C@H]1CCCN1C(=O)[C@@H]1C[C@H]1CN1CCN(c2csc3cc(C(F)(F)F)ccc23)CC1 [compound 826923]	141
CN(C)[C@H]1CCN(C(=O)[C@@H]2C[C@H]2CN2CCN(c3csc4cc(C(F)(F)F)ccc34)CC2)C1 [compound 826926]	86.5
CC1CCC(C)N1C(=O)[C@@H]1C[C@H]1CN1CCN(c2csc3cc(C(F)(F)F)ccc23)CC1 (stereo partly drawn) [compound 826928]	11.2
O=C(CCCN1CCN(c2csc3cc(C(F)(F)F)ccc23)CC1Cc1ccccc1)N1CCC(O)CC1 (stereo not drawn) [compound 827063]	373
CC1CCN(C(=O)CCCN2CCN(c3csc4cc(C(F)(F)F)ccc34)CC2Cc2ccccc2)CC1 (stereo not drawn) [compound 827065]	168
CC1CCCN(C(=O)CCCN2CCN(c3csc4cc(C(F)(F)F)ccc34)CC2Cc2ccccc2)C1 (stereo not drawn) [compound 827066]	209

Compound	Ki [nM]
O=C(CCCN1CCN(c2csc3cc(C(F)(F)F)ccc23)CC1Cc1ccccc1)N1CCC(N2CCCC2)CC1 (stereo not drawn) [compound 827067]	268
CC1(C)CCCN(C(=O)CCCN2CCN(c3csc4cc(C(F)(F)F)ccc34)CC2Cc2ccccc2)C1 (stereo not drawn) [compound 827068]	197
CCOC(=O)C1CCN(C(=O)CCCN2CCN(c3csc4cc(C(F)(F)F)ccc34)CC2CCCc2ccccc2)CC1 (stereo not drawn) [compound 827082]	303
CC1CCCCN1C(=O)CCCN1CCN(c2csc3cc(C(F)(F)F)ccc23)CC1CCCc1ccccc1 (stereo not drawn) [compound 827084]	266
O=C(CCCN1CCN(c2csc3cc(F)ccc23)CC1Cc1ccccc1)N1CCC(O)CC1 (stereo not drawn) [compound 827093]	84
CC1CCCCN1C(=O)CCCN1CCN(c2csc3cc(F)ccc23)CC1Cc1ccccc1 (stereo not drawn) [compound 827094]	34.6
CC1CCN(C(=O)CCCN2CCN(c3csc4cc(F)ccc34)CC2Cc2ccccc2)CC1 (stereo not drawn) [compound 827095]	37.8
CC1CCCN(C(=O)CCCN2CCN(c3csc4cc(F)ccc34)CC2Cc2ccccc2)C1 (stereo not drawn) [compound 827096]	44.7
O=C(CCCN1CCN(c2csc3cc(F)ccc23)CC1Cc1ccccc1)N1CCC(N2CCCC2)CC1 (stereo not drawn) [compound 827097]	51.5
CC1(C)CCCN(C(=O)CCCN2CCN(c3csc4cc(F)ccc34)CC2Cc2ccccc2)C1 (stereo not drawn) [compound 827098]	82.9
CC1CC(C)CN(C(=O)CCCN2CCN(c3csc4cc(F)ccc34)CC2Cc2ccccc2)C1 (stereo not drawn) [compound 827099]	144
O=C(CCCN1CCN(c2csc3cc(F)ccc23)CC1Cc1ccccc1)N1CCCC1 (stereo not drawn) [compound 827100]	63.5
CC1CCCN1C(=O)CCCN1CCN(c2csc3cc(F)ccc23)CC1Cc1ccccc1 (stereo not drawn) [compound 827103]	81.7
CN(C)C1CCN(C(=O)CCCN2CCN(c3csc4cc(F)ccc34)CC2Cc2ccccc2)C1 (stereo not drawn) [compound 827104]	141
CCOC(=O)C1CCN(C(=O)CCCN2CCN(c3csc4cc(F)ccc34)CC2CCCc2ccccc2)CC1 (stereo not drawn) [compound 827112]	126
O=C(CCCN1CCN(c2csc3cc(F)ccc23)CC1CCCc1ccccc1)N1CCC(O)CC1 (stereo not drawn) [compound 827113]	95
CC1CCCCN1C(=O)CCCN1CCN(c2csc3cc(F)ccc23)CC1CCCc1ccccc1 (stereo not drawn) [compound 827114]	120

Same assay, conditions: read-out: D3 Ki

Compound	Ki [nM]
CC(C)(C)OC(=O)N1CCN(C[C@@H]2C[C@H]2C(=O)N[C@H]2CC[C@H](C)CC2)CC1 [compound 827184]	237

Same assay, conditions: read-out: d3Ki

Compound	Ki [nM]
C[C@H]1CC[C@H](NC(=O)[C@@H]2C[C@H]2CN2CCN(c3cccc(Cl)c3)CC2)CC1 [compound 827173]	2.78
Cc1ccc(N2CCN(C[C@@H]3C[C@H]3C(=O)N[C@H]3CC[C@H](C)CC3)CC2)cc1 [compound 827174]	8.7
C[C@H]1CC[C@H](NC(=O)[C@@H]2C[C@H]2CN2CCN(c3ccccn3)CC2)CC1 [compound 827175]	4
CCOc1ccccc1N1CCN(C[C@@H]2C[C@H]2C(=O)N[C@H]2CC[C@H](C)CC2)CC1 [compound 827176]	1.18
C[C@H]1CC[C@H](NC(=O)[C@@H]2C[C@H]2CN2CCN(c3ccccc3Cl)CC2)CC1 [compound 827177]	1
C[C@H]1CC[C@H](NC(=O)[C@@H]2C[C@H]2CN2CCN(c3ccc(Cl)cc3)CC2)CC1 [compound 827178]	12.4
COc1ccccc1N1CCN(C[C@@H]2C[C@H]2C(=O)N[C@H]2CC[C@H](C)CC2)CC1 [compound 827179]	1.04
Cc1cccc(N2CCN(C[C@@H]3C[C@H]3C(=O)N[C@H]3CC[C@H](C)CC3)CC2)c1 [compound 827180]	2.47
C[C@H]1CC[C@H](NC(=O)[C@@H]2C[C@H]2CN2CCN(c3ccc(C(F)(F)F)cc3Cl)CC2)CC1 [compound 827181]	97.2
C[C@H]1CC[C@H](NC(=O)[C@@H]2C[C@H]2CN2CCN(c3ccc(C(F)(F)F)cn3)CC2)CC1 [compound 827182]	73
C[C@H]1CC[C@H](NC(=O)[C@@H]2C[C@H]2CN2CCN(c3ncccc3C(F)(F)F)CC2)CC1 [compound 827183]	3.29
C[C@H]1CC[C@H](NC(=O)[C@@H]2C[C@H]2CN2CCN(c3ccc(Cl)c(Cl)c3)CC2)CC1 [compound 827185]	4.89
Cc1ccc(C)c(N2CCN(C[C@@H]3C[C@H]3C(=O)N[C@H]3CC[C@H](C)CC3)CC2)c1 [compound 827186]	8.21
C[C@H]1CC[C@H](NC(=O)[C@@H]2C[C@H]2CN2CCN(c3cnccn3)CC2)CC1 [compound 827187]	10.6
C[C@H]1CC[C@H](NC(=O)[C@@H]2C[C@H]2CN2CCN(c3ccco3)CC2)CC1 [compound 827189]	126
